Data taken from publication PMC9964651, “Discovery of Ureido-Based Apcin Analogues as Cdc20-specific Inhibitors against Cancer” (Pharmaceuticals, 2023).
Where a name gives a salt, the structure may show the parent alone. Read-outs that look alike come from different tables or passages of the source.

Columns and labels:
[1] = test system: Mda-mb-231; experiment: In vitro antiproliferative assay (CCK-8); settings: read-out: IC50 ± SD Mda-mb-231
Method: (§1) Hela and MDA-MB-132 cells were grown in DMEM (Gibco) containing 10% FBS and 1% double antibody (penicillin 100 U/mL, streptomycin 100 μg/mL, Solarbio). […] All cell lines were purchased from the Xiangya Cell Bank, Central South University, Changsha, China, and incubated at 37 °C with 5% CO2 in a humidified atmosphere. […] Cytotoxicity assay was assessed using CCK-8 methods. The cells were seeded in a 96-well plate (2 × 10^3–3 × 10^3 cells/well), the 96-well plate was incubated at 37 °C with 5% CO2 in a humidified atmosphere, and the cells were grown in a monolayer; the original culture was discarded. A total of 100 μL of drug-containing medium with a specific concentration gradient was added and then cultivated for 48 h; 10 μL/well of CCK-8 solution was added, put in an incubator, and incubated for 1 h and read with a multi-function microplate reader at a wavelength of 450 nm. The inhibition rate was calculated, and the IC50 results were calculated by GraphPad Prism 7 software. The experiment was repeated three times.

[2] = test system: Hepg2; experiment: In vitro antiproliferative assay (CCK-8); settings: read-out: IC50 ± SD Hepg2
Method: as §1

[3] = test system: Hela; experiment: In vitro antiproliferative assay (CCK-8); type: cell-based, human; settings: CCK-8, 48 h, mean ± SD
From the text: The experiment was repeated three times.

[4] = test system: Mcf-7; experiment: In vitro antiproliferative assay (CCK-8); settings: read-out: IC50 ± SD Mcf-7
Method: as §1

[5] = test system: four cancer-cell lines; experiment: In vitro antiproliferative assay (CCK-8), cell line not given; settings: Homo sapiens, read-out: IC50 (antiproliferative activity)

Row | IC50 ([1]; CCK-8, 48 h, mean ± SD) [µM] | IC50 ([2]; CCK-8, 48 h, mean ± SD) [µM] | IC50 [3] [µM] | IC50 ([4]; CCK-8, 48 h, mean ± SD) [µM] | IC50 [5] [µM] | IC50 ([1]; Homo sapiens, MDA-MB-231, 48 h) [µM] | IC50 ([2]; Homo sapiens, HepG2, 48 h) [µM] | IC50 ([3]; Homo sapiens, HeLa) [µM] | IC50 ([4]; Homo sapiens, MCF7, 48 h) [µM] | Molecule
1 | 27.81 ± 0.17 | 26.13 ± 0.05 | 31.9 ± 3.29 | 24.8 ± 9.49 | – | – | – | – | – | 1-phenethyl-3-(2,2,2-trichloro-1-((4,6-difluoropyrimidin-2-yl)amino)ethyl)urea [Compound 22]
2 | – | – | – | – | > 80 | > 100 | > 100 | > 100 | > 100 | O=C(NC(Nc1ncccn1)C(Cl)(Cl)Cl)NS(=O)(=O)c1ccccc1 (stereo not shown) [Compound 6, N-((2,2,2-trichloro-1-(pyrimidin-2-ylamino)ethyl)carbamoyl)benzenesulfonamide]
3 | – | – | – | – | – | 68.9 ± 2.67 | 27.8 ± 1.85 | 34.04 ± 0.02 | 23.5 ± 4.17 | Nc1c(Cl)nc(NC(NC(=O)OCCc2ccccc2)C(Cl)(Cl)Cl)nc1Cl (stereo not shown) [Compound 19, Phenethyl(1-((5-amino-4,6-dichloropyrimidin-2-yl)amino)-2,2,2-trichloroethyl)carbamate]
4 | – | – | – | – | – | > 100 | 67.9 ± 6.74 | > 100 | 60.4 ± 3.91 | Cc1cnc(NC(NC(=O)NCCc2ccccc2)C(Cl)(Cl)Cl)nc1 (stereo not shown) [Compound 23, 1-phenethyl-3-(2,2,2-trichloro-1-((5-methylpyrimidin-2-yl)ami-no)ethyl)urea]
5 | – | – | – | – | – | 52.2 ± 0.63 | 32.5 ± 6.31 | 41.6 ± 8.81 | 37.3 ± 1.63 | Nc1nc(Cl)cc(NC(NC(=O)NCCc2ccccc2)C(Cl)(Cl)Cl)n1 (stereo not shown) [Compound 25, 1-(1-((2-amino-6-chloropyrimidin-4-yl)amino)-2,2,2-trichloroe-thyl)-3-phenethylurea]
6 | – | – | – | – | < 40 | 34.7 ± 1.23 | 20.7 ± 3.6 | 34.2 ± 5.16 | 21.3 ± 4.52 | O=C(NCCc1ccccc1)NC(Nc1nccc(C(F)(F)F)n1)C(Cl)(Cl)Cl (stereo not shown) [Compound 7, 1-phenethyl-3-(2,2,2-trichloro-1-((4-(trifluoromethyl)pyrimidin-2-yl)aminno16)ethyl)urea]
7 | – | – | – | – | – | > 100 | > 100 | > 100 | > 100 | Cc1c(Cl)nc(NC(NC(=O)NS(=O)(=O)c2ccccc2)C(Cl)(Cl)Cl)nc1Cl (stereo not shown) [Compound 11, N-((2,2,2-trichloro-1-((4,6-dichloro-5-methylpyrimidin-2yl)amino)ethyl)carbamoyl)benzenesulfonamide]
8 | – | – | – | – | – | > 100 | 66.3 ± 1.91 | 86.7 ± 4.25 | 79.3 ± 20.3 | O=C(NCCc1ccccc1)NC(Nc1ncccn1)C(Cl)(Cl)Cl (stereo not shown) [Compound 2, 1-phenethyl-3-(2,2,2-trichloro-1-(pyrimidin-2-ylamino)ethyl)urea]
9 | – | – | – | – | – | > 100 | > 100 | > 100 | > 100 | O=C(NCCc1ccccc1)NC(Nc1ncc(Cl)cn1)C(Cl)(Cl)Cl (stereo not shown) [Compound 9, 1-phenethyl-3-(2,2,2-trichloro-1-((5-chloropyrimidin-2-yl)amino)ethyl)urea]
10 | – | – | – | – | – | 0.61 ± 0.12 | 0.28 ± 0.13 | 0.17 ± 0.08 | 0.41 ± 0.05 | Nc1nc(F)nc2c1ncn2C(NC(=O)NCCc1ccccc1)C(Cl)(Cl)Cl (stereo not shown) [Compound 28, 1-(1-(6-amino-2-fluoro-9H-purin-9-yl)-2,2,2-trichloroethyl)-3-phenethylurea]
11 | – | – | – | – | – | > 100 | > 100 | > 100 | > 100 | Nc1c(Cl)nc(NC(NC(=O)NCCN2CCOCC2)C(Cl)(Cl)Cl)nc1Cl (stereo not shown) [Compound 21, 1-(1-((5-amino-4,6-dichloropyrimidin-2-yl)-l4-azanyl)-2,2,2-trichloroethyl)-3-(2-morpholinoethyl)urea]

Continued, molecule first:

Row | Molecule | IC50 ([1]; CCK-8, 48 h, mean ± SD) [µM] | IC50 ([2]; CCK-8, 48 h, mean ± SD) [µM] | IC50 [3] [µM] | IC50 ([4]; CCK-8, 48 h, mean ± SD) [µM] | IC50 [5] [µM] | IC50 ([1]; Homo sapiens, MDA-MB-231, 48 h) [µM] | IC50 ([2]; Homo sapiens, HepG2, 48 h) [µM] | IC50 ([3]; Homo sapiens, HeLa) [µM] | IC50 ([4]; Homo sapiens, MCF7, 48 h) [µM]
12 | O=C(NC(Nc1ncc(Cl)cn1)C(Cl)(Cl)Cl)NS(=O)(=O)c1ccccc1 (stereo not shown) [Compound 10, N-((2,2,2-trichloro-1-((5-chloropyrimidin-2yl)amino)ethyl)carbamoyl)benzenesul fonamide] | – | – | – | – | – | > 100 | > 100 | > 100 | > 100
13 | O=C(NC1CCCCC1)NC(Nc1ncccn1)C(Cl)(Cl)Cl (stereo not shown) [Compound 3, 1-cyclohexyl-3-(2,2,2-trichloro-1-(pyrimidin-2-ylamino)ethyl)urea] | – | – | – | – | > 80 | > 100 | > 100 | > 100 | > 100
14 | CCCNC(=O)NC(Nc1ncc([N+](=O)[O-])cn1)C(Cl)(Cl)Cl (stereo not shown) [Compound 13, 1-propyl-3-(2,2,2-trichloro-1-((5-nitropyrimidin-2-yl)amino)ethyl)urea] | – | – | – | – | – | > 100 | > 100 | > 100 | > 100
15 | Cc1ncc([N+](=O)[O-])n1CCNC(=O)NC(Nc1ncccn1)C(Cl)(Cl)Cl (stereo not shown) [Compound 1, 1-(2-(2-methyl-5-nitro-1H-imidazol-1-yl)ethyl)-3-(2,2,2-trichloro-1-(pyrimidin-2-ylamino)ethyl)urea] | – | – | – | – | > 80 | > 100 | > 100 | > 100 | > 100
16 | O=C(NCCc1ccccc1)NC(NNc1nccc(C(F)(F)F)n1)C(Cl)(Cl)Cl (stereo not shown) [Compound 30, 1-phenethyl-3-(2,2,2-trichloro-1-(2-(4-(trifluoromethyl)pyrimi-din-2-yl)hydrazinyl)ethyl)urea] | – | – | – | – | – | 73 ± 42.7 | 58 ± 10.6 | > 100 | 72.4 ± 30.9
17 | O=C(NCCc1ccccc1)NC(Nc1ncc(F)cn1)C(Cl)(Cl)Cl (stereo not shown) [Compound 16, 1-phenethyl-3-(2,2,2-trichloro-1-((5-fluoropyrimidin-2-yl)amin-no)ethyl)urea] | – | – | – | – | – | > 100 | > 100 | > 100 | > 100
18 | N#Cc1cnc(NC(NC(=O)NCCc2ccccc2)C(Cl)(Cl)Cl)nc1 (stereo not shown) [Compound 15, 1-phenethyl-3-(2,2,2-trichloro-1-((5-cyanopyrimidin-2-yl)amin-o)ethyl)urea] | – | – | – | – | – | > 100 | > 100 | > 100 | > 100
19 | 1-phenethyl-3-(2,2,2-trichloro-1-((2,6-dichloropyrimidin-4-yl)amino)ethyl)urea [Compound 17] | 25.2 ± 10.8 | > 100 | 60 ± 7.55 | > 100 | – | – | – | – | –
20 | COC(=O)c1cnc(NC(NC(=O)NCCc2ccccc2)C(Cl)(Cl)Cl)nc1C (stereo not shown) [Compound 24, Methyl-4-methyl-2-((2,2,2-trichloro-1-(3-phenethylureido)eth-yl)amino)pyrimidine-5-carboxylate] | – | – | – | – | – | 58.6 ± 18.4 | 32.4 ± 5 | > 100 | 29.2 ± 3.46
21 | Nc1cc(Cl)nc(NC(NC(=O)NCCc2ccccc2)C(Cl)(Cl)Cl)n1 (stereo not shown) [Compound 26, 1-(1-((4-amino-6-chloropyrimidin-2-yl)amino)-2,2,2-trichloroe-thyl)-3-phenethylurea] | – | – | – | – | – | 61.6 ± 11.1 | 32.8 ± 3.94 | 44.7 ± 4.6 | 44.8 ± 8.78
22 | Cc1ccc(S(=O)(=O)NC(=O)NC(Nc2nccc(C(F)(F)F)n2)C(Cl)(Cl)Cl)cc1 (stereo not shown) [Compound 8, 4-methyl-N-((2,2,2-trichloro-1-((4-(trifluoromethyl)pyrimidin-2-yl)amino)ethyl)carbamoyl)benzenesulfonamide] | – | – | – | – | – | > 100 | > 100 | > 100 | > 100
23 | CCNC(=O)NC(Nc1ncccn1)C(Cl)(Cl)Cl (stereo not shown) [Compound 5, 1-ethyl-3-(2,2,2-trichloro-1-(pyrimidin-2-ylamino)ethyl)urea] | – | – | – | – | > 80 | > 100 | > 100 | > 100 | > 100
24 | O=C(NCCc1ccccc1)NC(Nc1ncc([N+](=O)[O-])cn1)C(Cl)(Cl)Cl (stereo not shown) [Compound 14, 1-phenethyl-3-(2,2,2-trichloro-1-((5-nitropyrimidin-2-yl)amin-o)ethyl)urea] | – | – | – | – | – | > 100 | 51.8 ± 2.43 | 79.6 ± 45.2 | 44.7 ± 7.62
25 | O=C(NCCN1CCOCC1)NC(Nc1ncccn1)C(Cl)(Cl)Cl (stereo not shown) [Compound 4, 1-(2-morpholinoethyl)-3-(2,2,2-trichloro-1-(pyrimidin-2ylamino)ethyl)urea] | – | – | – | – | > 80 | > 100 | > 100 | > 100 | > 100
26 | Cc1ncc([N+](=O)[O-])n1CCNC(=O)NC(n1cnc2c(N)nc(F)nc21)C(Cl)(Cl)Cl (stereo not shown) [Compound 29, 1-(1-(6-amino-2-fluoro-9H-purin-9-yl)-2,2,2-trichloroethyl)-3-(2-(2-methyl-5-nitro-1H-imidazol-1-yl)ethyl)urea] | – | – | – | – | – | 0.37 ± 0.07 | 0.13 ± 0.05 | 0.08 ± 0.01 | 0.23 ± 0.09
27 | O=C(NCCc1ccccc1)NC(Nc1nc(Cl)cc(Cl)n1)C(Cl)(Cl)Cl (stereo not shown) [Compound 18, 1-phenethyl-3-(2,2,2-trichloro-1-((4,6-dichloropyrimidin-2-yl)amino)ethyl)urea, sodium salt] | – | – | – | – | – | 50.4 ± 3.07 | 30.59 ± 0.1 | 36.7 ± 1.23 | 33.8 ± 1.91
28 | Cc1c(Cl)nc(NC(NC(=O)NCCc2ccccc2)C(Cl)(Cl)Cl)nc1Cl (stereo not shown) [Compound 12, 1-phenethyl-3-(2,2,2-trichloro-1-((4,6-dichloro-5-methylpyrimidin-2-yl)amino)ethyl)urea] | – | – | – | – | – | > 100 | 27.1 ± 5.27 | 43.5 ± 20.4 | 27.7 ± 2.13
